Article PMC12473014, “Granzyme B PET Imaging Enables Early Assessment of Immunotherapy Response in a Humanized Melanoma Mouse Model” (Pharmaceuticals, 2025)
Read-outs that look alike come from different tables or passages of the source. Each block holds one compound with its values, some of them ahead of it.

How the values were obtained:
active human GZB [1] = target: T1, active human GZB (Homo sapiens, UniProt P10144); assay: Fluorometric human GZB enzymatic inhibition assay (ab157403); type: biochemical; set-up: Each dilution was combined with 0.1 µg/µL of active GZB protein (ab285779); purchased ab285779; conditions: 0.1 µg/µL active GZB, 5000 to 0.00002048 nM, 50 µL, duplicate, kinetic mode after 90 min at 27 °C, CI: 2.95–5.98, read-out: inhibition constant (Ki)
Experimental: (§1) NOTA-CYT-200 was synthesized (CytoSite Biopharma, Sudbury, MA, USA) with a high chemical purity (>95%) and characterized using mass spectrometry. We performed a fluorometric human GZB activity assay (ab157403) to determine the inhibitor constant (Ki) of NOTA-CYT-200 for active human GZB enzyme activity in vitro. NOTA-CYT-200 was serially diluted with GZB assay buffer, starting from 5000 to 0.00002048 nanomolar. Each dilution was combined with 0.1 µg/µL of active GZB protein (ab285779) and the provided fluorophore. Each well contained a total volume of 50 µL, and all the samples were tested in duplicate using a microplate reader in kinetic mode (BioTek Cytation5, Winooski, VT, USA) after 90 min of incubation at 27 °C. The in vivo specificity of NOTA-CYT-200 labeled with 68gallium (^68Ga-NOTA-CYT-200) for the active human GZB protein was evaluated in non-tumor-bearing naive NSG mice (n = 8) following a subcutaneous injection of 80 µL of Matrigel alone (Corning™ Matrigel™ Membrane Matrix) or 65 µL of Matrigel containing 15 µL of active human GZB protein (0.05 µg/µL, totaling 0.75 µg GZB) into each animal’s shoulder. […] The uptake of ^68Ga-NOTA-CYT-200, measured as standard uptake values (SUVs) within the implanted regions, was assessed using the VivoQuant™ software, version 4.0 (InVicro, Needham, MA, USA). […]

active human GZB protein = assay: PET uptake in subcutaneous Matrigel implants with or without active GZB (in vivo specificity); conditions: n = 8, SUV normalized to blood pool, 1 h after i.v. 4.39 MBq, mean ± SEM
Experimental: as §1

active human GZB [2] = target: T1, active human GZB; type: in vivo; conditions: for mean TBR: mean ± SEM
Experimental: (§2) Human melanoma G361 (ATCC®) cells were cultured in McCoy’s Medium (Thermo-Fisher, Waltham, MA, USA) supplemented with 10% fetal bovine serum (Thermo-Fisher) and 1% penicillin–streptomycin (Thermo-Fisher) at 37 °C with 5% CO2. The mice were then subcutaneously (s.c.) implanted with 2 × 10^6 G361 cells suspended in Matrigel and 100 µL of phosphate-buffered saline (Sigma-Aldrich, St. […] To estimate the tumor volume, both the longest and shortest perpendicular diameters were measured. These measurements were then combined using a standard method commonly employed in preclinical studies to approximate the tumor volume, providing a reliable estimate of the three-dimensional tumor size. Four days after tumor implantation, the tumors measured 336 ± 38 mm^3. The mice were then randomly assigned to receive three doses at three-day intervals of either 200 µg/100 µg of an anti-PD1/CTLA4 combination therapy (combination group, n = 15), 200 µg of anti-PD1 as a monotherapy (monotherapy group, n = 15), or a vehicle solution (controls, n = 12) via an intraperitoneal (i.p.) injection. A subset of mice (combination: n = 8, monotherapy: n = 9, controls: n = 6) underwent PET/CT imaging before treatment (baseline), as well as 4 days (timepoint 2), 1 week (timepoint 3), and 2 weeks (timepoint 4) after the treatment began (Figure 7). ^68Gallium was obtained by eluting a ^68Ga/^68Ge generator (Eckert and Ziegler, Berlin, Germany) with 0.1 molar HCl. A total of 2 mL of eluted ^68gallium was mixed with 100 µL of NOTA-CYT-200, stored in a stock solution of 1 mg/mL of metal-free water (OmniTrace Ultra, Millipore, Burlington, MA, USA) and two molar HEPES buffer to adjust the pH to 3.5–4.0. The reaction was incubated at 95 °C for 10 min. The mixture was then adjusted to a pH of 7.0 using sodium hydroxide (NaOH) before being administered intravenously via the tail vein. A total of 3.96 MBq ± 0.81 of ^68Ga-NOTA-CYT-200 was injected 60 ± 5 min prior to PET/CT acquisition. The PET/CT images were acquired in static mode using a small animal Argus PET/CT scanner (Sedecal, Madrid, Spain) in two bed positions over 20 min. The PET images were reconstructed using (2 iterations and 16 subsets) 2D-OSEM and corrected for randoms and scatter. Post-acquisition, the PET/CT images were analyzed by two blinded investigators using the VivoQuant™ software, version 4.0 (InVicro). Standard uptake values (SUVs) for the tumor, liver, and colon were normalized to the blood pool activity measured by drawing a region of interest around the left ventricle of the heart, yielding target-to-background ratios (TBR for tumor, LBR for liver, and CBR for colon). This normalization accounts for the nonspecific background signal and enables a comparison of the uptake across the groups and imaging timepoints. Prism (version 9.2; GraphPad) was used to perform quantitative data analyses. The data are presented as the mean ± SEM. The means of the two groups were compared using unpaired Student’s t-tests when appropriate.

active human GZB [3] = target: T1, active human GZB; assay: PET/CT intestinal/colon uptake (CBR) in humanized NSG mice with G361 melanoma; type: in vivo; conditions: mean ± SEM
Experimental: as §2

active human GZB [4] = target: T1, active human GZB; assay: PET/CT liver uptake (LBR) in humanized NSG mice with G361 melanoma; type: in vivo; conditions: for liver-to-blood ratio (LBR): n = 8, mean ± SEM
Experimental: as §2

in vivo = assay: in vivo; set-up: species or system NSG mice; conditions: mouse; for tissue uptake at 1 h: NSG, iv, total radioactivity
Experimental: The ^68Ga-NOTA-CYT-200 biodistribution was evaluated for each treatment group four days after the initial dose. Major organs, such as the tumor, heart, lungs, liver, spleen, stomach, pancreas, intestines, kidneys, muscles, bones, skin, and brain from each mouse, were excised exactly one hour after the i.v. administration of 52.83 µCi ± 0.87 (controls, n = 3), 41.83 µCi ± 5.93 (mono, n = 4), or 34.65 µCi ± 3.82 (combination, n = 4) ^68Ga-NOTA-CYT-200. Each organ was weighed individually before measuring the activity with an automatic gamma counter (PerkinElmer Wallac Wizard 2480, Waltham, MA, USA).

T1 sequence (P10144 21-247): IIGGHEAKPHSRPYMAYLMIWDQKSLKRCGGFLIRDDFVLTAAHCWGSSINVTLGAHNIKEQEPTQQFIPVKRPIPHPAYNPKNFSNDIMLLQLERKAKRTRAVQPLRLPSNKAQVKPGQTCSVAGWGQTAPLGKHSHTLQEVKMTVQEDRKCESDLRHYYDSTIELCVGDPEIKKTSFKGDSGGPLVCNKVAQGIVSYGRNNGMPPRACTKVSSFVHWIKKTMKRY

Ki (active human GZB [1]): 4.2 nM
Structure (SMILES): CC[C@H](C)[C@H](NC(=O)CNC(=O)CNC(=O)[C@H](CCC(=O)O)NC(=O)Cc1ccc(CC2CN(CC(=O)O)CCN(CC(=O)O)CCN2CC(=O)O)cc1)C(=O)N[C@H]1CCc2cccc3c2N(C1=O)[C@H](C(=O)N[C@H]1CC(=O)OC1O)C3 (stereo partly shown) [NOTA-CYT-200]

mean TBR (active human GZB [2]; baseline, combination (anti-PD1/CTLA4), n = 8): 1.47 ± 0.2 | mean TBR (active human GZB [2]; baseline, monotherapy (anti-PD1), n = 9): 1.25 ± 0.17 | off-target binding in tumors of the control group (active human GZB [2]; control group (vehicle)): some off-target binding | highest TBR on day 4 or day 7 (active human GZB [2]; controls, n = 6): 1.75 ± 0.39 | TBR, responder analysis (active human GZB [2]; day 4, treatment non-responders (TNRs), n = 6, p = 0.02 vs controls): 2.7 ± 0.9 | TBR, responder analysis (active human GZB [2]; day 4, treatment responders (TRs), n = 3, p < 0.0001 vs controls): 4.0 ± 1.2 | mean TBR (active human GZB [2]; day 4 after treatment start, combination (anti-PD1/CTLA4), n = 8, p < 0.0001 vs controls, p = 0.027 vs monotherapy): 3.88 ± 0.47 | mean TBR (active human GZB [2]; day 4 after treatment start, controls (vehicle), n = 6): 1.15 ± 0.13 | mean TBR (active human GZB [2]; day 4 after treatment start, monotherapy (anti-PD1), n = 9, p = 0.0005 vs controls): 2.84 ± 0.3 | mean TBR (active human GZB [2]; day 7, combination (anti-PD1/CTLA4), n = 8, p = 0.0052 vs monotherapy, p = 0.0003 vs controls): 3.5 ± 0.48 | mean TBR (active human GZB [2]; day 7, controls (vehicle), n = 6): 1.69 ± 0.2 | mean TBR (active human GZB [2]; day 7, monotherapy (anti-PD1), n = 9, p = 0.59 vs controls): 2.14 ± 0.11 | mean TBR (active human GZB [2]; day 14, combination (anti-PD1/CTLA4), n = 8, p = 0.01 vs monotherapy, p = 0.05 vs controls): 3.05 ± 0.43 | mean TBR (active human GZB [2]; day 14, controls (vehicle), n = 6): 1.97 ± 0.28 | mean TBR (active human GZB [2]; day 14, monotherapy (anti-PD1), n = 9, p = 0.88 vs controls): 1.75 ± 0.15 | highest TBR on day 4 or day 7 (active human GZB [2]; treatment non-responders (TNRs), n = 6, p = 0.175 vs controls): 2.73 ± 0.88 | highest TBR on day 4 or day 7 (active human GZB [2]; treatment responders (TRs), n = 3, p = 0.0002 vs controls, p = 0.0109 vs TNRs): 4.28 ± 1.20 | intestinal/colon-to-blood ratio (CBR) (active human GZB [3]; baseline, combination, n = 8): 3.5 ± 0.62 | intestinal/colon-to-blood ratio (CBR) (active human GZB [3]; baseline, controls, n = 6): 2.11 ± 0.56 | intestinal/colon-to-blood ratio (CBR) (active human GZB [3]; baseline, monotherapy, n = 9): 2.68 ± 0.43 | intestinal/colon-to-blood ratio (CBR) (active human GZB [3]; day 4, combination, n = 8, p = 0.029 vs baseline): 6.81 ± 1.21 | intestinal/colon-to-blood ratio (CBR) (active human GZB [3]; day 4, monotherapy, n = 9, p = 0.07 vs baseline): 5.41 ± 0.98 | intestinal/colon-to-blood ratio (CBR) (active human GZB [3]; day 7, combination, n = 8, p = 0.96 vs baseline): 6.21 ± 1.23 | intestinal/colon-to-blood ratio (CBR) (active human GZB [3]; day 7, monotherapy, n = 9, p = 0.8 vs baseline): 3.75 ± 0.57 | intestinal/colon-to-blood ratio (CBR) (active human GZB [3]; day 14, combination, n = 8, p = 0.99 vs baseline): 4.09 ± 0.97 | intestinal/colon-to-blood ratio (CBR) (active human GZB [3]; day 14, monotherapy, n = 9, p = 0.99 vs baseline): 2.25 ± 0.36 | liver-to-blood ratio (LBR) (active human GZB [4]; baseline, combination): 2.98 ± 0.34 | liver-to-blood ratio (LBR) (active human GZB [4]; day 4, combination, p < 0.0001 vs baseline): 6.93 ± 1.04 | liver-to-blood ratio (LBR) (active human GZB [4]; day 7, combination, p < 0.0001 vs baseline): 7.16 ± 1.03 | liver-to-blood ratio (LBR) (active human GZB [4]; day 14, combination, p = 0.91 vs baseline, p = 0.0004 and 0.0001 vs days 4 and 7): 3.52 ± 0.27 | LBR change versus baseline (active human GZB [4]; days 7 and 14, monotherapy, n = 9, p = 0.93 and p = 0.71): remained comparable to baseline | tissue uptake at 1 h (in vivo; 41.83 uCi, kidney uptake): 1.47 ± 0.37 %ID/g | tissue uptake at 1 h (in vivo; 41.83 uCi, tumor uptake): 0.25 ± 0.06 %ID/g | tissue uptake at 1 h (in vivo; 52.83 uCi, intestinal uptake): 0.17 ± 0.13 %ID/g | tissue uptake at 1 h (in vivo; 52.83 uCi, kidney uptake): 1.32 ± 0.84 %ID/g | tissue uptake at 1 h (in vivo; 52.83 uCi, tumor uptake): 0.12 ± 0.03 %ID/g
Structure (SMILES): CC[C@H](C)[C@H](NC(=O)CNC(=O)CNC(=O)[C@H](CCC(=O)O)NC(=O)Cc1ccc(CC2CN(CC(=O)O)CCN(CC(=O)O)CCN2CC(=O)O)cc1)C(=O)N[C@H]1CCc2cccc3c2N(C1=O)[C@H](C(=O)N[C@H]1CC(=O)OC1O)C3 (stereo partly shown) [^68Ga-NOTA-CYT-200, metal not drawn]
radiotracer uptake in implant (active human GZB protein; Matrigel containing active GZB protein (0.75 µg), p = 0.0045 vs Matrigel without protein): 6.18 ± 2.92 | radiotracer uptake in implant (active human GZB protein; Matrigel without the protein): 2.48 ± 1.01 | inhibition of the inflammatory response to immunotherapy by tracer injection (active human GZB [2]; in vivo): did not observe any obvious inhibition of the inflammatory response to immunotherapy | LBR change versus baseline (active human GZB [4]; day 4, monotherapy, n = 9, p = 0.023): significant LBR increase on day 4 versus baseline | LBR change versus baseline (active human GZB [4]; post-treatment timepoints, controls, n = 6, p 0.43 to 0.71): none of the post-treatment LBR values were significantly different from baseline | main organ of tracer elimination (in vivo): kidney as the main organ responsible for tracer elimination
